Results published in patent US7642283B2, “Mitochrondrial permeability transition pore affinity labels and modulators” (Hoffmann-La Roche Inc., priority 2003, dated 2010).

Tests used:
MPTP = biological target: T1, MPTP (Rattus norvegicus, UniProt Q9Z2L0); test: Ca2+-retention capacity of rat brain mitochondria (Calcium Green-5N); assay type: biochemical; conditions: 1 μM compound; 5 μM Ca2+ pulses; mean±SEM of 3; control 530±70
T1 construct: other: n=2; glutamate/malate; other: glutamate/malate; 20 min; mean±SEM; unit not given; other: 300 nM; relieved by 50 μM Ub5
T1 sequence (Q9Z2L0 2-283): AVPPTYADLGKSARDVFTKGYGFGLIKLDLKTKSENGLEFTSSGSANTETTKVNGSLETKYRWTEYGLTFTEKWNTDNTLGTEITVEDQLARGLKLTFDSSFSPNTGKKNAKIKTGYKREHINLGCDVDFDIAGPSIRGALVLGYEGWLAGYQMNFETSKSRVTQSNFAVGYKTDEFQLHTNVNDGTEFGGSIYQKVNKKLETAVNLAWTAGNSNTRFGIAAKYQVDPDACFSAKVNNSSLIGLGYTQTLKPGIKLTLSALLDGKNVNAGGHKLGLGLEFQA
Experimental: FIG. 4: (A) Effect of Spiro[cyclopentane-1,5′-[5H]dibenzo[a,d]cyclohepten]-2-one,10′,11′-dihydro-3-methylene- and CsA on Ca^2+-retention capacity of rat brain mitochondria. The incubation medium contained 0.2 M sucrose, 10 mM Tris-Mops, pH 7.4, 1 mM Pi-Tris, 5 μM EGTA and 5 mM glutamate/2.5 mM malate, buffered to pH 7.4 with Tris, containing 0.01% (w/v) bovine serum albumin and 1 μM Calcium Green-5N. The final volume was 2.5 ml. Trace (a) control, (b) 1 μM CsA, (c) 1 μM Spiro[cyclopentane-1,5′-[5H]dibenzo[a,d]cyclohepten]-2-one,10′,11′-dihydro-3-methylene- and (d) 1 μM CsA plus 1 μM Spiro[cyclopentane-1,5′-[5H]dibenzo[a,d]cyclohepten]-2-one,10′,11′-dihydro-3-methylene-. Each fluorescence spike corresponds to addition of 5 μM Ca^2+. (B) Comparison of Ca^2+-retention capacity in liver (a) and brain mitochondria (b).
Effect of Spiro[cyclopentane-1,5′-[5H]dibenzo[a,d]cyclohepten]-2-one,10′,11′-dihydro-3-methylene- and CsA on Ca^2+-retention capacity of rat brain mitochondria (FIG. 4). Measurement of extramitochondrial Ca^2+ was determined using a Perkin-Elmer LS-50B fluorimeter controlled by the FL WinLab computer program. […] The final volume was 2.5 ml and the cuvette was thermostated at 25° C. Brain mitochondria were then subjected to a train of 5 μM Ca^2+ additions (˜150 nmol mg protein^−1). Extramitochondrial Ca^2+ was monitored at excitation/emission wavelengths of 505-535. […] The Ca^2+-retention capacity in liver (a) and brain mitochondria (b) were also compared (FIG. 4B).
The effect of Spiro[cyclopentane-1,5′-[5H]dibenzo[a,d]cyclohepten]-2-one,10′,11′-dihydro-3-methylene- at inhibiting MPTP was also investigated in mitochondria isolated from rat forebrain. […] Due to the difficulties mentioned above, the effect of Spiro[cyclopentane-1,5′-[5H]dibenzo[a,d]cyclohepten]-2-one,10′,11′-dihydro-3-methylene- on MPTP in brain mitochondria was more accurately investigated by subjecting mitochondria isolated from rat forebrain to a series of Ca^2+ pulses (5 μM, ˜150 nmol mg protein^−1) and by monitoring extramitochondrial Ca^2+ or using fluororescent probes.

YVDAC1 = biological target: T2, YVDAC1 (Saccharomyces cerevisiae, UniProt P04840); test: Affinity labeling of yeast mitochondria (Δpor1 and Δpor1 expressing YVDAC1); assay type: binding; conditions: Δpor1 yeast mitochondria expressing YVDAC1; increasing concentration
T2 construct: expressed in transfected cells; host or cells: Δpor1 yeast strain carrying a YVDAC1 plasmid; isolated mitochondria
T2 sequence (P04840 2-283): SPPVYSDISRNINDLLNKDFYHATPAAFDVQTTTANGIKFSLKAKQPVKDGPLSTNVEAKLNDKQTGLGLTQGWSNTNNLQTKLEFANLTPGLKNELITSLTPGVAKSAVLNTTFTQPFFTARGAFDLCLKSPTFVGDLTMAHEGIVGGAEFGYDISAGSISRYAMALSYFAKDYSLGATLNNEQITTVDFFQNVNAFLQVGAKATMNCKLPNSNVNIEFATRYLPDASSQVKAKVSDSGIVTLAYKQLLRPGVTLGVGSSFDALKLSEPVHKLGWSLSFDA
Source text: FIG. 9: Spiro[cyclopentane-1,5′-[5H]dibenzo[a,d]cyclohepten]-2-one,10′,11′-t2-10′,11′-dihydro-3-methylene affinity labeling of yeast mitochondria lacking the por1 gene for YVDAC1 (Δpor1) and into Δpor1 yeast mitochondria transfected with YVDAC1 in presence or absence of different concentrations of Spiro[cyclopentane-1,5′-[5H]dibenzo[a,d]cyclohepten]-2-one,10′,11′-dihydro-3-methylene (unlabeled). The fluorograms of gels after SDS-PAGE are shown. Mitochondria isolated from yeast strains were incubated in the presence of 10 nM Spiro[cyclopentane-1,5′-[5H]dibenzo[a,d]cyclohepten]-2-one,10′,11′-t2-10′,11′-dihydro-3-methylene for 15 min at 25° C. Numbers indicate the concentrations (μM) of the various compounds added.
To further confirm VDAC1 as the protein target of Spiro[cyclopentane-1,5′-[5H]dibenzo[a,d]cyclohepten]-2-one,10′,11′-dihydro-3-methylene-, the labeling of proteins in mitochondria prepared from yeasts by Spiro[cyclopentane-1,5′-[5H]dibenzo[a,d]cyclohepten]-2-one,10′,11′-t2-10′,11′-dihydro-3-methylene- was investigated. […] Increasing concentration of unlabelled Spiro[cyclopentane-1,5′-[5H]dibenzo[a,d]cyclohepten]-2-one,10′,11′-dihydro-3-methylene-inhibited incorporation of the radioactivity (FIG. 9).

## C=C1CCC2(C1=O)c1ccccc1CCc1ccccc12 [Spiro[cyclopentane-1,5′-[5H]dibenzo[a,d]cyclohepten]-2-one,10′,11′-dihydro-3-methylene-]
MPTP
  Ca2+-buffering capacity: 1200±120 nmol Ca^2+ mg protein^−1
YVDAC1
  Effect of unlabelled compound on incorporation of radioactivity: inhibited
